In US9113629B2, “4-amino-6-(4-substituted-phenyl)-picolinates and 6-amino-2-(4-substituted-phenyl)-pyrimidine-4-carboxylates and their use as herbicides” (DOW AGROSCIENCES LLC, priority 2013, dated 2015):

System: Key Broadleaf Weed and Crop Species
Test: Post-emergent Test II herbicidal activity (Table 5)
Format: in vivo
Conditions: post-emergence, 336 h; ABUTH: velvetleaf (Abutilon theophrasti); application rate 70 g ai/ha; 14 days after application; read-out: Visual Growth Reduction (%) 14 Days After Application, ABUTH
Outline: (§1)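 Post-emergence foliar spray, 187 L/ha, track sprayer at 43 cm above canopy. Carrier: acetone/water/IPA/DMSO/Atplus 411F/Triton X-155. Plants at 1st–2nd true leaf; subirrigated afterwards; % injury scored visually at 14 d.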

Row | Structure (SMILES) | pest or weed control at 70 g/ha [%]
1 | C#Cc1ccc(-c2nc(C(=O)O)c(Cl)c(N)c2F)cc1F [Compound 71] | 0 to 29

Same assay, conditions: post-emergence, 336 h; ABUTH: velvetleaf (Abutilon theophrasti); application rate 140 g ai/ha; 14 days after application; read-out: Visual Growth Reduction (%) 14 Days After Application, ABUTH

Row | Structure (SMILES) | pest or weed control at 140 g/ha [%]
2 | C#Cc1ccc(-c2nc(C(=O)O)c(Cl)c(N)c2F)cc1F [Compound 71] | 45 to 59

Same assay, conditions: post-emergence, 336 h; AMARE: redroot pigweed (Amaranthus retroflexus); application rate 70 g ai/ha; 14 days after application; read-out: Visual Growth Reduction (%) 14 Days After Application, AMARE

Row | Structure (SMILES) | pest or weed control at 70 g/ha [%]
3 | C#Cc1ccc(-c2nc(C(=O)O)c(Cl)c(N)c2F)cc1F [Compound 71] | 60 to 74

Same assay, conditions: post-emergence, 336 h; AMARE: redroot pigweed (Amaranthus retroflexus); application rate 140 g ai/ha; 14 days after application; read-out: Visual Growth Reduction (%) 14 Days After Application, AMARE

Row | Structure (SMILES) | pest or weed control at 140 g/ha [%]
4 | C#Cc1ccc(-c2nc(C(=O)O)c(Cl)c(N)c2F)cc1F [Compound 71] | 75 to 84

Same assay, conditions: post-emergence, 336 h; BRSNN: oilseed-rape, canola (Brassica napus); application rate 70 g ai/ha; 14 days after application; read-out: Visual Growth Reduction (%) 14 Days After Application, BRSNN

Row | Structure (SMILES) | pest or weed control at 70 g/ha [%]
5 | C#Cc1ccc(-c2nc(C(=O)O)c(Cl)c(N)c2F)cc1F [Compound 71] | 45 to 59

Same assay, conditions: post-emergence, 336 h; BRSNN: oilseed-rape, canola (Brassica napus); application rate 140 g ai/ha; 14 days after application; read-out: Visual Growth Reduction (%) 14 Days After Application, BRSNN

Row | Structure (SMILES) | pest or weed control at 140 g/ha [%]
6 | C#Cc1ccc(-c2nc(C(=O)O)c(Cl)c(N)c2F)cc1F [Compound 71] | 45 to 59

Same assay, conditions: post-emergence, 336 h; CHEAL: lambsquarters (Chenopodium album); application rate 70 g ai/ha; 14 days after application; read-out: Visual Growth Reduction (%) 14 Days After Application, CHEAL

Row | Structure (SMILES) | pest or weed control at 70 g/ha [%]
7 | C#Cc1ccc(-c2nc(C(=O)O)c(Cl)c(N)c2F)cc1F [Compound 71] | 85 to 94

Same assay, conditions: post-emergence, 336 h; CHEAL: lambsquarters (Chenopodium album); application rate 140 g ai/ha; 14 days after application; read-out: Visual Growth Reduction (%) 14 Days After Application, CHEAL

Row | Structure (SMILES) | pest or weed control at 140 g/ha [%]
8 | C#Cc1ccc(-c2nc(C(=O)O)c(Cl)c(N)c2F)cc1F [Compound 71] | 85 to 94

Same assay, conditions: post-emergence, 336 h; EPHHL: wild poinsettia (Euphorbia heterophylla); application rate 70 g ai/ha; 14 days after application; read-out: Visual Growth Reduction (%) 14 Days After Application, EPHHL

Row | Structure (SMILES) | pest or weed control at 70 g/ha [%]
9 | C#Cc1ccc(-c2nc(C(=O)O)c(Cl)c(N)c2F)cc1F [Compound 71] | 95 to 100

Same assay, conditions: post-emergence, 336 h; EPHHL: wild poinsettia (Euphorbia heterophylla); application rate 140 g ai/ha; 14 days after application; read-out: Visual Growth Reduction (%) 14 Days After Application, EPHHL

Row | Structure (SMILES) | pest or weed control at 140 g/ha [%]
10 | C#Cc1ccc(-c2nc(C(=O)O)c(Cl)c(N)c2F)cc1F [Compound 71] | 95 to 100

Same assay, conditions: post-emergence, 336 h; HELAN: sunflower (Helianthus annuus); application rate 70 g ai/ha; 14 days after application; read-out: Visual Growth Reduction (%) 14 Days After Application, HELAN

Row | Structure (SMILES) | pest or weed control at 70 g/ha [%]
11 | C#Cc1ccc(-c2nc(C(=O)O)c(Cl)c(N)c2F)cc1F [Compound 71] | 60 to 74

Same assay, conditions: post-emergence, 336 h; HELAN: sunflower (Helianthus annuus); application rate 140 g ai/ha; 14 days after application; read-out: Visual Growth Reduction (%) 14 Days After Application, HELAN

Row | Structure (SMILES) | pest or weed control at 140 g/ha [%]
12 | C#Cc1ccc(-c2nc(C(=O)O)c(Cl)c(N)c2F)cc1F [Compound 71] | 75 to 84

Same assay, conditions: post-emergence, 336 h; VIOTR: wild pansy (Viola tricolor); application rate 70 g ai/ha; 14 days after application; read-out: Visual Growth Reduction (%) 14 Days After Application, VIOTR

Row | Structure (SMILES) | pest or weed control at 70 g/ha [%]
13 | C#Cc1ccc(-c2nc(C(=O)O)c(Cl)c(N)c2F)cc1F [Compound 71] | 0 to 29

Same assay, conditions: post-emergence, 336 h; VIOTR: wild pansy (Viola tricolor); application rate 140 g ai/ha; 14 days after application; read-out: Visual Growth Reduction (%) 14 Days After Application, VIOTR

Row | Structure (SMILES) | pest or weed control at 140 g/ha [%]
14 | C#Cc1ccc(-c2nc(C(=O)O)c(Cl)c(N)c2F)cc1F [Compound 71] | 0 to 29

System: Key Grass and Sedge Weeds as well as Grass Crops
Test: Post-emergent Test II herbicidal activity (Table 6)
Format: in vivo
Conditions: post-emergence, 336 h, CYPES: yellow nutsedge (Cyperus esculentus), 70 g ai/ha, read-out: Visual Growth Reduction (%) 14 Days After Application, CYPES
Outline: as §1

Row | Structure (SMILES) | pest or weed control at 70 g/ha [%]
15 | C#Cc1ccc(-c2nc(C(=O)O)c(Cl)c(N)c2F)cc1F [Compound 71] | 0 to 29

Same assay, conditions: post-emergence, 336 h, CYPES: yellow nutsedge (Cyperus esculentus), 140 g ai/ha, read-out: Visual Growth Reduction (%) 14 Days After Application, CYPES

Row | Structure (SMILES) | pest or weed control at 140 g/ha [%]
16 | C#Cc1ccc(-c2nc(C(=O)O)c(Cl)c(N)c2F)cc1F [Compound 71] | 0 to 29

Same assay, conditions: post-emergence, 336 h, DIGSA: crabgrass (Digitaria sanguinalis), 70 g ai/ha, read-out: Visual Growth Reduction (%) 14 Days After Application, DIGSA

Row | Structure (SMILES) | pest or weed control at 70 g/ha [%]
17 | C#Cc1ccc(-c2nc(C(=O)O)c(Cl)c(N)c2F)cc1F [Compound 71] | 60 to 74

Same assay, conditions: post-emergence, 336 h, DIGSA: crabgrass (Digitaria sanguinalis), 140 g ai/ha, read-out: Visual Growth Reduction (%) 14 Days After Application, DIGSA

Row | Structure (SMILES) | pest or weed control at 140 g/ha [%]
18 | C#Cc1ccc(-c2nc(C(=O)O)c(Cl)c(N)c2F)cc1F [Compound 71] | 45 to 59

Same assay, conditions: post-emergence, 336 h, ECHCG: barnyardgrass (Echinochloa crus-galli), 70 g ai/ha, read-out: Visual Growth Reduction (%) 14 Days After Application, ECHCG

Row | Structure (SMILES) | pest or weed control at 70 g/ha [%]
19 | C#Cc1ccc(-c2nc(C(=O)O)c(Cl)c(N)c2F)cc1F [Compound 71] | 85 to 94

Same assay, conditions: post-emergence, 336 h, ECHCG: barnyardgrass (Echinochloa crus-galli), 140 g ai/ha, read-out: Visual Growth Reduction (%) 14 Days After Application, ECHCG

Row | Structure (SMILES) | pest or weed control at 140 g/ha [%]
20 | C#Cc1ccc(-c2nc(C(=O)O)c(Cl)c(N)c2F)cc1F [Compound 71] | 85 to 94

Same assay, conditions: post-emergence, 336 h, ORYSA: rice (Oryza sativa), crop, 70 g ai/ha, read-out: Visual Growth Reduction (%) 14 Days After Application, ORYSA

Row | Structure (SMILES) | pest or weed control at 70 g/ha [%]
21 | C#Cc1ccc(-c2nc(C(=O)O)c(Cl)c(N)c2F)cc1F [Compound 71] | 0 to 29

Same assay, conditions: post-emergence, 336 h, ORYSA: rice (Oryza sativa), crop, 140 g ai/ha, read-out: Visual Growth Reduction (%) 14 Days After Application, ORYSA

Row | Structure (SMILES) | pest or weed control at 140 g/ha [%]
22 | C#Cc1ccc(-c2nc(C(=O)O)c(Cl)c(N)c2F)cc1F [Compound 71] | 0 to 29

Same assay, conditions: post-emergence, 336 h, SETFA: giant foxtail (Setaria faberi), 70 g ai/ha, read-out: Visual Growth Reduction (%) 14 Days After Application, SETFA

Row | Structure (SMILES) | pest or weed control at 70 g/ha [%]
23 | C#Cc1ccc(-c2nc(C(=O)O)c(Cl)c(N)c2F)cc1F [Compound 71] | 60 to 74

Same assay, conditions: post-emergence, 336 h, SETFA: giant foxtail (Setaria faberi), 140 g ai/ha, read-out: Visual Growth Reduction (%) 14 Days After Application, SETFA

Row | Structure (SMILES) | pest or weed control at 140 g/ha [%]
24 | C#Cc1ccc(-c2nc(C(=O)O)c(Cl)c(N)c2F)cc1F [Compound 71] | 60 to 74

Same assay, conditions: post-emergence, 336 h, SORVU: grain sorghum (Sorghum vulgare), 70 g ai/ha, read-out: Visual Growth Reduction (%) 14 Days After Application, SORVU

Row | Structure (SMILES) | pest or weed control at 70 g/ha [%]
25 | C#Cc1ccc(-c2nc(C(=O)O)c(Cl)c(N)c2F)cc1F [Compound 71] | 30 to 44

Same assay, conditions: post-emergence, 336 h, SORVU: grain sorghum (Sorghum vulgare), 140 g ai/ha, read-out: Visual Growth Reduction (%) 14 Days After Application, SORVU

Row | Structure (SMILES) | pest or weed control at 140 g/ha [%]
26 | C#Cc1ccc(-c2nc(C(=O)O)c(Cl)c(N)c2F)cc1F [Compound 71] | 45 to 59

Same assay, conditions: post-emergence, 336 h, TRZSS (wheat, Triticum aestivum), crop, 70 g ai/ha, read-out: Visual Growth Reduction (%) 14 Days After Application, TRZSS

Row | Structure (SMILES) | pest or weed control at 70 g/ha [%]
27 | C#Cc1ccc(-c2nc(C(=O)O)c(Cl)c(N)c2F)cc1F [Compound 71] | 30 to 44

Same assay, conditions: post-emergence, 336 h, TRZSS (wheat, Triticum aestivum), crop, 140 g ai/ha, read-out: Visual Growth Reduction (%) 14 Days After Application, TRZSS

Row | Structure (SMILES) | pest or weed control at 140 g/ha [%]
28 | C#Cc1ccc(-c2nc(C(=O)O)c(Cl)c(N)c2F)cc1F [Compound 71] | 45 to 59

Same assay, conditions: post-emergence, 336 h, ZEAMX: maize, corn (Zea mays), crop, 70 g ai/ha, read-out: Visual Growth Reduction (%) 14 Days After Application, ZEAMX

Row | Structure (SMILES) | pest or weed control at 70 g/ha [%]
29 | C#Cc1ccc(-c2nc(C(=O)O)c(Cl)c(N)c2F)cc1F [Compound 71] | 95 to 100

Same assay, conditions: post-emergence, 336 h, ZEAMX: maize, corn (Zea mays), crop, 140 g ai/ha, read-out: Visual Growth Reduction (%) 14 Days After Application, ZEAMX

Row | Structure (SMILES) | pest or weed control at 140 g/ha [%]
30 | C#Cc1ccc(-c2nc(C(=O)O)c(Cl)c(N)c2F)cc1F [Compound 71] | 95 to 100

System: not given
Test: not given
Conditions: not given

Row | melting point | Structure (SMILES)
31 | 157 to 160 °C (dec.) | C#Cc1ccc(-c2nc(C(=O)O)c(Cl)c(N)c2F)cc1F [Compound 71]
